Laboratory results published in ChEMBL document CHEMBL4619814, “Identification and Development of 1,4-Diaryl-1,2,3-triazolo-Based Ureas as Novel FLT3 Inhibitors” (ACS Med Chem Lett, 2020).

How the values were obtained:
[1] = system: Receptor-type tyrosine-protein kinase FLT3 (Homo sapiens), P36888 [UNDEFINED MUTATION]; details: MV4-11
Description: Inhibition of FLT3 ITD mutant expressed in human MV4-11 cells assessed as reduction in cell growth incubated for 72 hrs by CCK8 assay

[2] = system: Receptor-type tyrosine-protein kinase FLT3 (Homo sapiens), P36888 [UNDEFINED MUTATION]; details: BaF3
Description: Inhibition of FLT3 ITD mutant expressed in human BaF3 cells assessed as reduction in cell growth incubated for 72 hrs by CCK8 assay

in vitro = details: mouse, BaF3 cells
Description: Cytotoxicity against human BAF3 cells assessed as growth inhibition incubated for 72 hrs by CCK8 assay

Sequence of Receptor-type tyrosine-protein kinase FLT3 (Homo sapiens), P36888 [UNDEFINED MUTATION] (P36888 whole entry, looked up, change not shown): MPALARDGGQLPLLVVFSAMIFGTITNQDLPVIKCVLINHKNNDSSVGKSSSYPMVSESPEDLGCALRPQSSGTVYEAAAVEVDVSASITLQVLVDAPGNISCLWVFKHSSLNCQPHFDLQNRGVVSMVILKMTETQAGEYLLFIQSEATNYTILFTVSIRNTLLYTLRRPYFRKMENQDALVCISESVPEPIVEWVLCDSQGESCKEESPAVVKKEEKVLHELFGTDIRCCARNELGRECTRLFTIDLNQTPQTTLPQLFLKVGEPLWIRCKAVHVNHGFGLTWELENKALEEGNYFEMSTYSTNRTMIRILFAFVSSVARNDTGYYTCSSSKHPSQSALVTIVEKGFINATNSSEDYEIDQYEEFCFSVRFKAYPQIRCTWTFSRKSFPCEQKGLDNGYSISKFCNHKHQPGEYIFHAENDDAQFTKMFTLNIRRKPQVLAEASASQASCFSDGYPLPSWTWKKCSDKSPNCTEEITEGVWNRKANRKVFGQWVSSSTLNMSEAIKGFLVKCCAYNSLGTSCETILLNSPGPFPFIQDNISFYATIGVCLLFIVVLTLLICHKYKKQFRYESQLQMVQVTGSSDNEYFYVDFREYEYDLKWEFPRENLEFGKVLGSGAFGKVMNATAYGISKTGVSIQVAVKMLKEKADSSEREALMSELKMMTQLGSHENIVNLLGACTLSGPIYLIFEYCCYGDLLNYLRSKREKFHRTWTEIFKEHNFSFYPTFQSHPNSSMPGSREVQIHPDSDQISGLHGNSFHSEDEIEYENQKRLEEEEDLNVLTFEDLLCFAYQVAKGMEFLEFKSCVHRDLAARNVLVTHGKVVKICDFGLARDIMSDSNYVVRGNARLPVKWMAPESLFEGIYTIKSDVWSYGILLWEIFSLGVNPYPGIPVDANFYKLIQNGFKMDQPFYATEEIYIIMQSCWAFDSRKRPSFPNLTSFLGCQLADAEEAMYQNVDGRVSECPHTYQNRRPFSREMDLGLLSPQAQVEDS

Row | Compound | GI50 [1] [nM] | GI50 [2] [nM] | GI50 at 72 h (in vitro) [nM]
1 | CC(C)(C)c1cc(NC(=O)Nc2ccc(-c3cn(-c4ccc(OCCN5CCOCC5)cc4C(F)(F)F)nn3)cc2)no1 | 58.6 | 40.5 | > 3000
2 | CC(C)(C)c1cc(NC(=O)Nc2ccc(-c3cn(-c4ccc(OCCN5CCCCC5)cc4Cl)nn3)cc2)no1 | 5.6 | – | 1960
3 | CC(C)(C)c1cc(NC(=O)Nc2ccc(-c3cn(-c4ccc(OCCN5CCOCC5)c(C(F)(F)F)c4)nn3)cc2)no1 | 106 | 48.5 | 1520
4 | CN(C)CCOc1ccc(-n2cc(-c3ccc(NC(=O)Nc4cc(C(C)(C)C)on4)cc3)nn2)c(Cl)c1 | 4 | – | > 3000
5 | CC(C)(C)c1cc(NC(=O)Nc2ccc(-c3cn(-c4ccc(OCCCN5CCOCC5)cc4Cl)nn3)cc2)no1 | 6.2 | 1.5 | > 3000
6 | CC(C)(C)c1cc(NC(=O)Nc2ccc(-c3cn(-c4ccc(OCCN5CCCC5)cc4Cl)nn3)cc2)no1 | 5 | – | 2040
7 | COc1cc(-c2cn(-c3ccc(OCCN4CCOCC4)cc3)nn2)ccc1NC(=O)Nc1cc(C(C)(C)C)on1 | 1220 | 851 | 1510
8 | COc1cc(-n2cc(-c3ccc(NC(=O)Nc4cc(C(C)(C)C)on4)cc3)nn2)ccc1OCCN1CCOCC1 | 4.8 | – | > 3000
9 | CC(C)(C)c1cc(NC(=O)Nc2ccc(-c3cn(-c4ccc(OCCN5CCOCC5)c([N+](=O)[O-])c4)nn3)cc2)no1 | 39.2 | 55.4 | > 3000

Next, values leading:

Row | GI50 [1] [nM] | GI50 [2] [nM] | GI50 at 72 h (in vitro) [nM] | Compound
10 | 12 | 3 | > 3000 | CC(C)(C)c1cc(NC(=O)Nc2ccc(-c3cn(-c4ccc(OCCN5CCOCC5)cc4)nn3)c(Cl)c2)no1
11 | 21.5 | 2.8 | 1380 | CC(C)(C)c1cc(NC(=O)Nc2ccc(-c3cn(-c4ccc(OCCN5CCOCC5)c(Cl)c4)nn3)cc2)no1
12 | 5.1 | – | > 3000 | CC(C)(C)c1cc(NC(=O)Nc2ccc(-c3cn(-c4ccc(OCCN5CCOCC5)cc4F)nn3)cc2)no1
13 | 4 | – | > 3000 | CC(C)(C)c1cc(NC(=O)Nc2ccc(-c3cn(-c4ccc(OCCN5CCOCC5)cc4)nn3)cc2)no1
14 | 10.3 | 1.5 | > 3000 | CC(C)(C)c1cc(NC(=O)Nc2ccc(-c3cn(-c4ccc(OCCN5CCOCC5)cc4)nn3)c(F)c2)no1
15 | 7.1 | 1 | 1970 | Cc1cc(-n2cc(-c3ccc(NC(=O)Nc4cc(C(C)(C)C)on4)cc3)nn2)ccc1OCCN1CCOCC1
16 | 498 | 165 | > 3000 | CC(C)(C)c1cc(NC(=O)Nc2ccc(-c3cn(-c4ccc(OCCN5CCOCC5)cc4)nn3)cc2Cl)no1
17 | 5.7 | 2.3 | 2020 | CC(C)(C)c1cc(NC(=O)Nc2ccc(-c3cn(-c4ccc(OCCN5CCOCC5)cc4Br)nn3)cc2)no1
18 | 19.6 | 4.2 | > 3000 | CC(C)(C)c1cc(NC(=O)Nc2ccc(-c3cn(-c4ccc(OCCN5CCOCC5)cc4)nn3)cc2F)no1
19 | 344 | 61.5 | 2160 | Cc1cc(-c2cn(-c3ccc(OCCN4CCOCC4)cc3)nn2)ccc1NC(=O)Nc1cc(C(C)(C)C)on1
